Laboratory results from paper PMC10891214, “Effects of food and ethnicity on the pharmacokinetics of venadaparib, a next-generation PARP inhibitor, in healthy Korean, Caucasian, and Chinese male subjects” (Investigational New Drugs, 2023).

Tests used:
[1] = test system: cytochrome P450 3A4; parameters: method as in data on file; conditions: in vitro phenotyping study; ref data on file; cited from earlier work
[2] = Safety assessment (adverse events, vital signs, 12-lead ECGs) after a single administration of venadaparib 80 mg; conditions: for TEAEs: number of events / TEAEs: number of subjects: Koreans and Caucasians
Procedure: Safety was assessed in all subjects who received the study drug at least once throughout the study based on adverse event (AE) monitoring, physical examinations, vital signs, 12-lead electrocardiograms (ECGs), and clinical laboratory tests.
To support the evaluation of the relationship between concentration and QT/corrected QT (QTc) interval effects in the early stage of the clinical development of venadaparib, triplicate ECG tests were conducted in the middle of the study [22]. A triplicate ECG test was conducted in three Caucasian and five Chinese subjects after the protocol amendment. […] Fridericia’s corrected QT interval (QTcF) was collected, along with the existing ventricular rate, PR interval, QRS duration, QT interval, and QTcB. Triplicate ECGs were measured three times at intervals of 30 s to 2 min at each time point after at least 5 min of resting, and the median value of the three measurements was considered a representative value. QTcF and QTcB were calculated using the following population-derived correction equations: QTcF = QT/RR^0.33 and QTcB = QT/RR^0.5 [22].

[3] = Caucasian, fasted state (N = 12)

Structure (SMILES): O=C(c1cc(Cc2n[nH]c(=O)c3ccccc23)ccc1F)N1CC(CNC2CC2)C1 [venadaparib]
- Enzyme primarily metabolizing the drug [1]: cytochrome P450 3A4
- Changes in vital signs or 12-lead ECGs ([2]; 80 mg single dose): No clinically significant changes
- Serious AEs ([2]; 80 mg single dose, all groups): No serious AEs were observed
- Severity of TEAEs ([2]; 80 mg single dose, except contact dermatitis (moderate) in one subject, fed state): mild
- Effect of plasma concentrations on QTcF and QTcB values, including changes from the baseline ([2]; 80 mg single dose, triplicate ECG subset): did not prolong
- Safety and tolerability of a single dose ([2]; 80 mg, fasted and fed states, healthy subjects): safe and well-tolerated
- Blood bilirubin increased: number of events [2, 3]: 1
- Chalazion: number of events [2, 3]: 1
- Chalazion: number of subjects (percentage of subjects) [2, 3]: 1 (8.3)
- Eye disorders: number of events [2, 3]: 1
- Eye disorders: number of subjects (percentage of subjects) [2, 3]: 1 (8.3)
- Gastrointestinal disorders: number of events [2, 3]: 1
- Gastrointestinal disorders: number of subjects (percentage of subjects) [2, 3]: 1 (8.3)
- Hyperuricaemia: number of events [2, 3]: 1
- Investigations: number of events [2, 3]: 1
- Metabolism and nutrition disorders: number of events [2, 3]: 1
- Metabolism and nutrition disorders: number of subjects (percentage of subjects) [2, 3]: 1 (8.3)
- Nausea: number of events [2, 3]: 1
- Nausea: number of subjects (percentage of subjects) [2, 3]: 1 (8.3)
- Blood and lymphatic system disorders: number of events ([2]; Caucasian, fed state (N = 12)): 1
- Blood and lymphatic system disorders: number of subjects (percentage of subjects) ([2]; Caucasian, fed state (N = 12)): 1 (8.3)
- Blood bilirubin increased: number of events ([2]; Caucasian, fed state (N = 12)): 1
- Blood bilirubin increased: number of subjects (percentage of subjects) ([2]; Caucasian, fed state (N = 12)): 1 (8.3)
- Decreased appetite: number of events ([2]; Caucasian, fed state (N = 12)): 1
- Decreased appetite: number of subjects (percentage of subjects) ([2]; Caucasian, fed state (N = 12)): 1 (8.3)
- Dermatitis contact: number of events ([2]; Caucasian, fed state (N = 12)): 1
- Dermatitis contact: number of subjects (percentage of subjects) ([2]; Caucasian, fed state (N = 12)): 1 (8.3)
- Eosinophilia: number of events ([2]; Caucasian, fed state (N = 12)): 1
- Eosinophilia: number of subjects (percentage of subjects) ([2]; Caucasian, fed state (N = 12)): 1 (8.3)
- Epigastric discomfort: number of events ([2]; Caucasian, fed state (N = 12)): 1
- Epigastric discomfort: number of subjects (percentage of subjects) ([2]; Caucasian, fed state (N = 12)): 1 (8.3)
- Gastrointestinal disorders: number of events ([2]; Caucasian, fed state (N = 12)): 1
- General disorders and administration site conditions: number of events ([2]; Caucasian, fed state (N = 12)): 1
- General disorders and administration site conditions: number of subjects (percentage of subjects) ([2]; Caucasian, fed state (N = 12)): 1 (8.3)
- Headache: number of events ([2]; Caucasian, fed state (N = 12)): 1
- Headache: number of subjects (percentage of subjects) ([2]; Caucasian, fed state (N = 12)): 1 (8.3)
- Hyperuricaemia: number of events ([2]; Caucasian, fed state (N = 12)): 1
- Hyperuricaemia: number of subjects (percentage of subjects) ([2]; Caucasian, fed state (N = 12)): 1 (8.3)
- Investigations: number of events ([2]; Caucasian, fed state (N = 12)): 1
- Investigations: number of subjects (percentage of subjects) ([2]; Caucasian, fed state (N = 12)): 1 (8.3)
- Lethargy: number of events ([2]; Caucasian, fed state (N = 12)): 1
- Lethargy: number of subjects (percentage of subjects) ([2]; Caucasian, fed state (N = 12)): 1 (8.3)
- Metabolism and nutrition disorders: number of events ([2]; Caucasian, fed state (N = 12)): 2
- Metabolism and nutrition disorders: number of subjects (percentage of subjects) ([2]; Caucasian, fed state (N = 12)): 2 (16.7)
- Nervous system disorders: number of events ([2]; Caucasian, fed state (N = 12)): 2
- Nervous system disorders: number of subjects (percentage of subjects) ([2]; Caucasian, fed state (N = 12)): 2 (16.7)
- Skin and subcutaneous tissue disorders: number of events ([2]; Caucasian, fed state (N = 12)): 1
- Skin and subcutaneous tissue disorders: number of subjects (percentage of subjects) ([2]; Caucasian, fed state (N = 12)): 1 (8.3)
- Thirst: number of events ([2]; Caucasian, fed state (N = 12)): 1
- Thirst: number of subjects (percentage of subjects) ([2]; Caucasian, fed state (N = 12)): 1 (8.3)
- Total TEAEs: number of events ([2]; Caucasian, fed state (N = 12)): 9
- Total TEAEs: number of subjects (percentage of subjects) ([2]; Caucasian, fed state (N = 12)): 7 (58.3)
- Decreased appetite: number of events ([2]; Chinese, fasted state (N = 12)): 1
- Decreased appetite: number of subjects (percentage of subjects) ([2]; Chinese, fasted state (N = 12)): 1 (8.3)
- Dyspepsia: number of events ([2]; Chinese, fasted state (N = 12)): 1
- Dyspepsia: number of subjects (percentage of subjects) ([2]; Chinese, fasted state (N = 12)): 1 (8.3)
- Gastrointestinal disorders: number of events ([2]; Chinese, fasted state (N = 12)): 1
- Gastrointestinal disorders: number of subjects (percentage of subjects) ([2]; Chinese, fasted state (N = 12)): 1 (8.3)
- Hypertriglyceridaemia: number of events ([2]; Chinese, fasted state (N = 12)): 1
- Hypertriglyceridaemia: number of subjects (percentage of subjects) ([2]; Chinese, fasted state (N = 12)): 1 (8.3)
- Metabolism and nutrition disorders: number of events ([2]; Chinese, fasted state (N = 12)): 2
- Metabolism and nutrition disorders: number of subjects (percentage of subjects) ([2]; Chinese, fasted state (N = 12)): 2 (16.7)
- Abdominal pain: number of events ([2]; Korean, fasted state (N = 12)): 1
- Abdominal pain: number of subjects (percentage of subjects) ([2]; Korean, fasted state (N = 12)): 1 (8.3)
- Dyspepsia: number of events ([2]; Korean, fasted state (N = 12)): 1
- Dyspepsia: number of subjects (percentage of subjects) ([2]; Korean, fasted state (N = 12)): 1 (8.3)
- Gastrointestinal disorders: number of events ([2]; Korean, fasted state (N = 12)): 4
- Gastrointestinal disorders: number of subjects (percentage of subjects) ([2]; Korean, fasted state (N = 12)): 3 (25.0)
- Gingival pain: number of events ([2]; Korean, fasted state (N = 12)): 1
- Gingival pain: number of subjects (percentage of subjects) ([2]; Korean, fasted state (N = 12)): 1 (8.3)
- Nausea: number of events ([2]; Korean, fasted state (N = 12)): 1
- Nausea: number of subjects (percentage of subjects) ([2]; Korean, fasted state (N = 12)): 1 (8.3)
- Decreased appetite: number of events ([2]; Korean, fed state (N = 13)): 3
- Decreased appetite: number of subjects (percentage of subjects) ([2]; Korean, fed state (N = 13)): 3 (23.1)
- Dyspepsia: number of events ([2]; Korean, fed state (N = 13)): 2
- Dyspepsia: number of subjects (percentage of subjects) ([2]; Korean, fed state (N = 13)): 1 (7.7)
- Eye disorders: number of events ([2]; Korean, fed state (N = 13)): 3
- Eye disorders: number of subjects (percentage of subjects) ([2]; Korean, fed state (N = 13)): 1 (7.7)
- Eye pain: number of events ([2]; Korean, fed state (N = 13)): 1
- Eye pain: number of subjects (percentage of subjects) ([2]; Korean, fed state (N = 13)): 1 (7.7)
- Gastrointestinal disorders: number of events ([2]; Korean, fed state (N = 13)): 7
- Gastrointestinal disorders: number of subjects (percentage of subjects) ([2]; Korean, fed state (N = 13)): 5 (38.5)
- Hyperaemia: number of events ([2]; Korean, fed state (N = 13)): 1
- Hyperaemia: number of subjects (percentage of subjects) ([2]; Korean, fed state (N = 13)): 1 (7.7)
- Lacrimation increased: number of events ([2]; Korean, fed state (N = 13)): 1
- Lacrimation increased: number of subjects (percentage of subjects) ([2]; Korean, fed state (N = 13)): 1 (7.7)
- Metabolism and nutrition disorders: number of events ([2]; Korean, fed state (N = 13)): 3
- Metabolism and nutrition disorders: number of subjects (percentage of subjects) ([2]; Korean, fed state (N = 13)): 3 (23.1)
- Musculoskeletal and connective tissue disorders: number of events ([2]; Korean, fed state (N = 13)): 1
- Musculoskeletal and connective tissue disorders: number of subjects (percentage of subjects) ([2]; Korean, fed state (N = 13)): 1 (7.7)
- Nausea: number of events ([2]; Korean, fed state (N = 13)): 5
- Nausea: number of subjects (percentage of subjects) ([2]; Korean, fed state (N = 13)): 5 (38.5)
- Respiratory, thoracic, and mediastinal disorders: number of events ([2]; Korean, fed state (N = 13)): 1
- Respiratory, thoracic, and mediastinal disorders: number of subjects (percentage of subjects) ([2]; Korean, fed state (N = 13)): 1 (7.7)
- Rhabdomyolysis: number of events ([2]; Korean, fed state (N = 13)): 1
- Rhabdomyolysis: number of subjects (percentage of subjects) ([2]; Korean, fed state (N = 13)): 1 (7.7)
- Rhinorrhoea: number of events ([2]; Korean, fed state (N = 13)): 1
- Rhinorrhoea: number of subjects (percentage of subjects) ([2]; Korean, fed state (N = 13)): 1 (7.7)
- Total TEAEs: number of events ([2]; Korean, fed state (N = 13)): 16
- Total TEAEs: number of subjects (percentage of subjects) ([2]; Korean, fed state (N = 13)): 6 (46.2)
- Vascular disorders: number of events ([2]; Korean, fed state (N = 13)): 1
- Vascular disorders: number of subjects (percentage of subjects) ([2]; Korean, fed state (N = 13)): 1 (7.7)
- Vision blurred: number of events ([2]; Korean, fed state (N = 13)): 1
- Vision blurred: number of subjects (percentage of subjects) ([2]; Korean, fed state (N = 13)): 1 (7.7)
- TEAEs: number of events ([2]; fasted state, 80 mg): nine
- TEAEs: number of subjects ([2]; fasted state, 80 mg): seven
- TEAEs: number of events ([2]; fed state, 80 mg): 25
- TEAEs: number of subjects ([2]; fed state, 80 mg): 13
